How the values were obtained:
[1] = test system: SDMA signal (PRMT5 inhibition) in HCT116 MTAP-deleted cells; assay: Symmetric di-methyl arginine image-based high content screen assay (SDMA assay), HCT116 MTAP-deleted; assay type: cell-based; details: SDMA assay; for EC50: Homo sapiens, HCT-116, 72 h, 3 days of treatment, cell line not given, taken as HCT116 MTAP-deleted, read-out: EC50 (SDMA assay)
Outline: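 Read-out: per-cell mean SDMA immunofluorescence (Alexa Fluor 488 secondary), cells segmented by DAPI on a high-content imager. Compound exposure in HCT116 MTAP-deleted cells lasted until fixation on Day 3; overnight 4° C primary anti-SDMA antibody staining.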

[2] = test system: HCT116 MTAP-deleted cells; assay: Cell viability assay (CellTiter-Glo, 7 days), HCT116 MTAP-deleted; details: Homo sapiens, HCT-116, 168 h
Method: Control compounds were analyzed in parallel each time for quality control.
In Brief, on Day −1, a serial dilution of stock compounds in DMSO was performed using BioMek liquid handlers and dispensed using Echo acoustic dispenser into 384 well plates. Both tool compounds and sample compounds were spotted in the same plate for a dose response of PRMT5 inhibitors. Compound plates were stored as frozen until the cells were ready for seeding.
On Day 0, 100 HCT WT or HCT116 MTAP-deleted cells were seeded in compound-containing 384 well plates (50 μl per well) in RPMI 1640 media supplemented with 10% heat inactivated fetal bovine serum, Glutamax and penicillin streptomycin using EL460 liquid dispenser 5 μl cassette (BioTek, part no. 7170011). After equilibrating the plate in room temperature, the cells were incubated for 7 days inside the sealed incubator set at 37 °C with 90% humidity and 5% CO2.
On Day 7, the viability of cells was measured using a CTG assay kit (CellTitre-Glo; Promega cat no. G7573). Shortly, 40 μl per well of luminescent cell viability assay reagent were dispensed using EL460 liquid dispenser 5 μl cassette. CTG luminescence signal was measured using an EnVision plate reader (PerkinElmer) in accordance with manufacturer's instruction. The CC50 values for each compound after 7 days of treatment were calculated using 4 parameter non-linear logistical curve fit.

[3] = taken as HCT116 WT versus MTAP-deleted

CC(=O)N(C)N(Cc1ncc(C(F)(F)F)cc1F)C(=O)c1ccc2nc(N)c3cnn(C)c3c2c1 [Example 271, N′-acetyl-4-amino-N-((3-fluoro-5-(trifluoromethyl)pyridin-2-yl)methyl)-N′,1-dimethyl-1H-pyrazolo[4,3-c]quinoline-8-carbohydrazide]
EC50 [1]: < 1 nM | EC50 selectivity (SDMA assay) [1, 3]: 86 | CC50 [2]: < 100 nM

Cn1ncc2c(N)nc3ccc(C(=O)N(Cc4ccc(C(F)(F)F)c(F)c4)N4CCCC4=O)cc3c21 [Example 15, 4-amino-N-(3-fluoro-4-(trifluoromethyl)benzyl)-1-methyl-N-(2-oxopyrrolidin-1-yl)-1H-pyrazolo[4,3-c]quinoline-8-carboxamide]
EC50 [1]: 1 to 5 nM | EC50 selectivity (SDMA assay) [1, 3]: 23 | CC50 [2]: < 100 nM

CC(=O)N(C)N(Cc1ccc(C(F)(F)F)cn1)C(=O)c1cc2c3c(c(N)nc2cc1F)COC3 [Example 70, N′-acetyl-4-amino-7-fluoro-N′-methyl-N-[[5-(trifluoromethyl)-2-pyridyl]methyl]-1,3-dihydrofuro[3,4-c]quinoline-8-carbohydrazide]
EC50 [1]: 1 to 5 nM | EC50 selectivity (SDMA assay) [1, 3]: 11 | CC50 [2]: < 100 nM

CC(=O)N(C)N(Cc1ncc(C(F)(F)F)cc1Cl)C(=O)c1ccc2nc(N)c3cnn(C)c3c2c1 [Example 261, N′-acetyl-4-amino-N-((3-chloro-5-(trifluoromethyl)pyridin-2-yl)methyl)-N′,1-dimethyl-1H-pyrazolo[4,3-c]quinoline-8-carbohydrazide]
EC50 [1]: 1 to 5 nM | EC50 selectivity (SDMA assay) [1, 3]: 257 | CC50 [2]: < 100 nM

Cn1ncc2c(N)nc3ccc(C(=O)N(Cc4ccc(C(F)(F)F)cn4)NC(=O)OC4CCC4)cc3c21 [Example 330, cyclobutyl 2-(4-amino-1-methyl-1H-pyrazolo[4,3-c]quinoline-8-carbonyl)-2-((5-(trifluoromethyl)pyridin-2-yl)methyl)hydrazine-1-carboxylate]
EC50 [1]: < 1 nM | EC50 selectivity (SDMA assay) [1, 3]: 225 | CC50 [2]: < 100 nM

Cn1ncc2c(N)nc3ccc(C(=O)N(Cc4nc5cc(Cl)ccc5n4C)N4CCCC4=O)cc3c21 [Example 208, 4-Amino-N-[(5-chloro-1-methyl-benzimidazol-2-yl)methyl]-1-methyl-N-(2-oxopyrrolidin-1-yl)pyrazolo[4,3-c]quinoline-8-carboxamide]
EC50 [1]: < 1 nM | EC50 selectivity (SDMA assay) [1, 3]: 91 | CC50 [2]: < 100 nM

Cn1ncc2c(N)nc3ccc(C(=O)N(Cc4ccc(C(F)(F)F)cn4)N4CC(C(F)(F)F)OC4=O)cc3c21 (stereo not drawn) [Example 178, 4-amino-1-methyl-N-(2-oxo-5-(trifluoromethyl)oxazolidin-3-yl)-N-((5-(trifluoromethyl)pyridin-2-yl)methyl)-1H-pyrazolo[4,3-c]quinoline-8-carboxamide]
EC50 [1]: > 5 nM | EC50 selectivity (SDMA assay) [1, 3]: 138 | CC50 [2]: 100 to 1000 nM

Cn1ncc2c(N)nc3cc(Cl)c(C(=O)N(Cc4ccc(C(F)(F)F)cn4)N4CCOCC4=O)cc3c21 [Example 63, 4-amino-7-chloro-1-methyl-N-(3-oxomorpholin-4-yl)-N-[[5-(trifluoromethyl)-2-pyridyl]methyl]pyrazolo[4,3-c]quinoline-8-carboxamide]
EC50 [1]: 1 to 5 nM | EC50 selectivity (SDMA assay) [1, 3]: 70 | CC50 [2]: < 100 nM

Cn1ncc2c(N)nc3ccc(C(=O)N(Cc4ccc(C(F)(F)F)cn4)N4CCS(=O)(=O)CC4)cc3c21 [Example 138, 4-amino-N-(1,1-dioxo-1,4-thiazinan-4-yl)-1-methyl-N-[[5-(trifluoromethyl)-2-pyridyl]methyl]pyrazolo[4,3-c]quinoline-8-carboxamide]
EC50 [1]: > 5 nM | EC50 selectivity (SDMA assay) [1, 3]: 174 | CC50 [2]: > 1000 nM

CN(C(=O)C1CC1)N(Cc1ccc(F)cc1)C(=O)c1ccc2nc(N)c3cnn(C)c3c2c1 [Example 235, 4-amino-N′-(cyclopropanecarbonyl)-N-(4-fluorobenzyl)-N′,1-dimethyl-1H-pyrazolo[4,3-c]quinoline-8-carbohydrazide]
EC50 [1]: 1 to 5 nM | EC50 selectivity (SDMA assay) [1, 3]: 259 | CC50 [2]: < 100 nM

C[C@H]1CN(N(Cc2ccc(C(F)(F)F)cn2)C(=O)c2ccc3nc(N)c4cnn(C)c4c3c2)C(=O)O1 (single isomer, unassigned) [Example 8]
EC50 [1]: < 1 nM | EC50 selectivity (SDMA assay) [1, 3]: 137 | CC50 [2]: < 100 nM

CNC(=O)c1ccc(-c2ccc(CN(C(=O)c3ccc4nc(N)c5cnn(C)c5c4c3)N3CCCCC3=O)nc2)cn1 [Example 160, 4-amino-1-methyl-N-((6′-(methylcarbamoyl)-[3,3′-bipyridin]-6-yl)methyl)-N-(2-oxopiperidin-1-yl)-1H-pyrazolo[4,3-c]quinoline-8-carboxamide]
EC50 [1]: 1 to 5 nM | EC50 selectivity (SDMA assay) [1, 3]: 10 | CC50 [2]: < 100 nM

CC(=O)N(C)N(Cc1nc2ccc(F)cc2s1)C(=O)c1cc2c(cc1F)nc(N)c1cnn(C)c12 [Example 214, N′-acetyl-4-amino-7-fluoro-N-[(6-fluoro-1,3-benzothiazol-2-yl)methyl]-N′,1-dimethyl-pyrazolo[4,3-c]quinoline-8-carbohydrazide]
EC50 [1]: < 1 nM | EC50 selectivity (SDMA assay) [1, 3]: 74 | CC50 [2]: < 100 nM

CC(=O)NN(Cc1ccc(C(F)(F)F)cc1F)C(=O)c1ccc2nc(N)c3cnn(C)c3c2c1 [Example 445, N′-acetyl-4-amino-N-(2-fluoro-4-(trifluoromethyl)benzyl)-1-methyl-1H-pyrazolo[4,3-c]quinoline-8-carbohydrazide]
EC50 [1]: < 1 nM | EC50 selectivity (SDMA assay) ([1]; taken as HCT116 WT vs MTAP-deleted): 69 | CC50 [2]: < 100 nM

CC(=O)N(C)N(Cc1ccccc1F)C(=O)c1ccc2nc(N)c3cnn(C)c3c2c1 [Example 181, N′-acetyl-4-amino-N-(2-fluorobenzyl)-N′,1-dimethyl-1H-pyrazolo[4,3-c]quinoline-8-carbohydrazide]
EC50 [1]: 1 to 5 nM | EC50 selectivity (SDMA assay) [1, 3]: 441 | CC50 [2]: 100 to 1000 nM

CC(C)C(=O)N(C)N(Cc1ccc(C(F)(F)F)cn1)C(=O)c1ccc2nc(N)c3cnn(C)c3c2c1 [Example 120, 4-amino-N′-isobutyryl-N′,1-dimethyl-N-((5-(trifluoromethyl)pyridin-2-yl)methyl)-1H-pyrazolo[4,3-c]quinoline-8-carbohydrazide]
EC50 [1]: < 1 nM | EC50 selectivity (SDMA assay) [1, 3]: 542 | CC50 [2]: < 100 nM

CN(C(=O)C1CC1)N(Cc1ccc(C(F)F)cc1F)C(=O)c1ccc2nc(N)c3cnn(C)c3c2c1 [Example 324, 4-amino-N′-(cyclopropanecarbonyl)-N-(4-(difluoromethyl)-2-fluorobenzyl)-N′,1-dimethyl-1H-pyrazolo[4,3-c]quinoline-8-carbohydrazide]
EC50 [1]: < 1 nM | EC50 selectivity (SDMA assay) [1, 3]: 111 | CC50 [2]: < 100 nM

CN(C(=O)N1CCC1)N(Cc1ccc(C(F)(F)F)cn1)C(=O)c1ccc2nc(N)c3cnn(C)c3c2c1 [Example 126, 4-amino-N′-(azetidine-1-carbonyl)-N′,1-dimethyl-N-((5-(trifluoromethyl)pyridin-2-yl)methyl)-1H-pyrazolo[4,3-c]quinoline-8-carbohydrazide]
EC50 [1]: < 1 nM | EC50 selectivity (SDMA assay) [1, 3]: 45 | CC50 [2]: < 100 nM

CN(C)N(Cc1ccc(C(F)(F)F)cn1)C(=O)c1ccc2nc(N)c3cscc3c2c1 [Example 73, 4-amino-N′,N′-dimethyl-N-((5-(trifluoromethyl)pyridin-2-yl)methyl)thieno[3,4-c]quinoline-8-carbohydrazide]
EC50 [1]: > 5 nM | EC50 selectivity (SDMA assay) [1, 3]: 39 | CC50 [2]: 100 to 1000 nM

CC(=O)N(C)N(Cc1ccc(-c2ccnn2C(F)(F)F)cc1F)C(=O)c1ccc2nc(N)c3cnn(C)c3c2c1 [Example 244, N′-acetyl-4-amino-N-(2-fluoro-4-(1-(trifluoromethyl)-1H-pyrazol-5-yl)benzyl)-N′,1-dimethyl-1H-pyrazolo[4,3-c]quinoline-8-carbohydrazide]
EC50 [1]: < 1 nM | EC50 selectivity (SDMA assay) [1, 3]: 109 | CC50 [2]: < 100 nM

Cn1ncc2c(N)nc3ccc(C(=O)N(Cc4cn5cc(C#N)ccc5n4)N4CCCC4=O)cc3c21 [Example 88, 4-Amino-N-[(6-cyanoimidazo[1,2-a]pyridin-2-yl)methyl]-1-methyl-N-(2-oxopyrrolidin-1-yl)pyrazolo[4,3-c]quinoline-8-carboxamide]
EC50 [1]: > 5 nM | EC50 selectivity (SDMA assay) [1, 3]: 221 | CC50 [2]: 100 to 1000 nM

CC(=O)N(C)N(Cc1cc(F)c(F)cc1F)C(=O)c1ccc2nc(N)c3cnn(C)c3c2c1 [Example 49, N′-acetyl-4-amino-N′,1-dimethyl-N-[(2,4,5-trifluorophenyl)methyl]pyrazolo[4,3-c]quinoline-8-carbohydrazide]
EC50 [1]: < 1 nM | EC50 selectivity (SDMA assay) [1, 3]: 163 | CC50 [2]: < 100 nM

CC(=O)N1CCN(N(Cc2ccc(C(F)(F)F)cn2)C(=O)c2ccc3nc(N)c4cnn(C)c4c3c2)CC1 [Example 384, N-(4-acetylpiperazin-1-yl)-4-amino-1-methyl-N-[[5-(trifluoromethyl)-2-pyridyl]methyl]pyrazolo[4,3-c]quinoline-8-carboxamide]
EC50 [1]: 1 to 5 nM | EC50 selectivity (SDMA assay) [1, 3]: 283 | CC50 [2]: 100 to 1000 nM

Cn1ncc2c(N)nc3ccc(C(=O)N(Cc4ccc(C(F)(F)F)cn4)N4CC5(CC(F)(F)C5)OC4=O)cc3c21 [Example 345, 4-amino-N-(2,2-difluoro-6-oxo-5-oxa-7-azaspiro[3.4]octan-7-yl)-1-methyl-N-((5-(trifluoromethyl)pyridin-2-yl)methyl)-1H-pyrazolo[4,3-c]quinoline-8-carboxamide]
EC50 [1]: 1 to 5 nM | EC50 selectivity (SDMA assay) [1, 3]: 152 | CC50 [2]: 100 to 1000 nM

Reference: patent publication US20240254118A1, “PRMT5 INHIBITORS AND USES THEREOF” (Gilead Sciences, Inc., priority 2022, published 2024)
